# Entries after “also recorded” stand apart in the source; their conditions may differ. Where two headings read alike, the source gives them in different places.
# Experiments:
# [1] = system: wild-type mouse bone marrow; assay: Hematopoietic colonies from bone marrow treated ex vivo; format: cell-based; conditions: 1 uM, ex vivo on ice for 2 hours; compared with SW033291
# Text: Treated marrow is again then plated into methylcellulose for counting of hematopoietic colonies.
# A549 cells [2] = assay: PGE2 levels in medium of IL1-beta stimulated A549 cells; format: cell-based; conditions: for PGE2 levels achieved: IL-1β 16 h, compound 8 h, highest level of titration; for Effect on PGE2 levels in medium, in words: IL1-beta stimulated A549 cells
# [3] = system: 15-PGDH-luciferase fusion reporter in V9m, LS174T and V503 cell lines; assay: 15-PGDH-luciferase fusion gene reporter induction in three colon cancer cell lines (stated jointly); format: cell-based
# [4] = system: V9m reporter cell line expressing a 15-PGDH luciferase fusion construct; assay: 15-PGDH-luciferase fusion gene reporter induction, V9m cell line; format: cell-based; conditions: […], % increased luciferase activity over basal level
# Text: These cell lines are Vaco-9m (V9m), LS174T, Vaco503 (V503). […] Value of 1.0 on the Y-axis is the basal level of reporter activity in cells treated with drug free DMSO vehicle.
# This Example provides data on a group of structural analogues of SW033291. Data provided includes level of induction of a 15-PGDH-luciferase fusion gene reporter, recorded as % increased luciferase activity over basal level, in three colon cancer cell lines, V9m, V503, and LS174T, engineered to contain the reporter, and treated with either 2.5 uM or 7.5 uM compound (i.e., Values are recorded on a scale where 100 indicates of doubling of luciferase activity over baseline level).
# FIGS. 27(A-C) show graphs that show the level of compound's activity in inducing the 15-PGDH-luciferase fusion reporter in three different test cell line backgrounds, V9m, LS174T, and V503. Each compound was tested at two concentrations, 2.5 uM, and 7.5 uM. Y-axis is luciferase activity.
# Data provided include level of induction of a 15-PGDH-luciferase fusion gene reporter, recorded as % induction of luciferase activity over basal level, in three colon cancer cell lines, V9m, V503, and LS174T, engineered to contain the reporter, and treated with either 2.5 uM or 7.5 uM compound. […] Additionally, for selected compounds is recorded the decrease in PGE2 levels in the media of compound treated A549 cells that have been stimulated with IL-1 beta. Additionally recorded for selected compounds is the effect on A549 cell viability as measured by a CellTiter-Glo assay, and the effect of compounds on A549 cell colony formation.
# [5] = target: T1, recombinant 15-PGDH protein (Homo sapiens (Human), UniProt P15428); assay: Melting temperature shift of recombinant 15-PGDH (SYPRO Orange); format: binding
# [6] = system: 15-PGDH mRNA in colon cancer cell lines; assay: 15-PGDH mRNA levels by real-time PCR; format: cell-based; conditions: treated colon cancer cell lines, real-time PCR
# Text: In these studies parental cell lines (not containing the 15-PGDH-luciferase reporter) are employed.
# [7] = target: T1, recombinant 15-PGDH protein; assay: Inhibition of enzymatic activity of recombinant 15-PGDH in vitro; format: biochemical; conditions: for inhibition at […]: read-out: Enzyme inhibition % ([…]), recombinant 15-PGDH, […] compound;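 as to all read-outs here: activity of recombinant human 15-PGDH assayed in vitro using PGE2 as the substrate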
# [8] = Metabolic stability with murine liver S9; format: in vitro ADME
# Protocol: SW054384 (2 mM in DMSO) was incubated with Murine S9 (Lot KWB) fraction and Phase I (NADPH Regenerating System) cofactors for 0-240 minutes. Reactions were quenched with a 1 mL (1:1) of MeOH/(+)IS/0.2% Formic Acid, vortexed for 15 seconds, incubated at RT for 10 minutes and spun for 5 minutes at 2400 rpms. […] Supernatant (800 μL) was transferred to an HPLC vial (w/out insert) and analyzed by HPLC/MS. A: dH2O+0.1% FA B: MeOH+0.1% FA
# SW125991 (2 mM in DMSO) was incubated with Murine S9 (Lot KWB) fraction and Phase I (NADPH Regenerating System) cofactors for 0-240 minutes. Reactions were quenched with 1 mL (1:1) of methanol containing 0.2% formic acid and 100 ng/ml IS (IS final conc.=50 ng/ml). Samples were vortexed for 15 seconds, incubated at RT for 10 minutes and spun for 5 minutes at 2400 rpm. […] Supernatant (800 μL) was transferred to an HPLC vial (w/out insert). Analyzed by Qtrap 3200 mass spectrometer.
# A549 cells [9] = assay: Cellular toxicity on A549 cells (CellTiter-Glo, cell numbers); format: cell-based; conditions: for Toxicity, CellTiter-Glo: 24 hours, up to 10 uM in FIG. 38
# Protocol: Time to inhibition refers to the time needed to inhibit the generation of NADH by 15-PGDH from the moment with drug is added into the reaction mix. Delta™ refers to the shift in melting temperature of recombinant 15-PGDH in the presence of drug (with cofactor NADH also present). Concentration of Full Cell Line Reporter Induction refers to the concentration of drug that needs to be added to reporter cell line to achieve maximal induction of the 15-PGDH-luciferase gene fusion reporter cassette, as measured by luciferase assays. Hepatocyte stability refers to the half-life of compound in the presence of hepatocytes in culture. Toxicity refers to the concentration of compound needed to decrease cell numbers in a cell culture assay.
# FIGS. 38(A-C) show assays of cellular toxicity on A549 cells at 24 hours of 15-PGDH inhibitors as assayed by CellTiter-Glo measurement.
# FIGS. 84(A-C) show at left (84A) activity in lowering PGE2 levels in media of A549 cells that are stimulated to produce PGE2 by treatment with IL1-beta.
# [10] = read-out: Enzyme inhibition % (2.5 μM)
# [11] = read-out: Enzyme inhibition % (7.5 μM)
# T1 sequence (P15428 whole entry): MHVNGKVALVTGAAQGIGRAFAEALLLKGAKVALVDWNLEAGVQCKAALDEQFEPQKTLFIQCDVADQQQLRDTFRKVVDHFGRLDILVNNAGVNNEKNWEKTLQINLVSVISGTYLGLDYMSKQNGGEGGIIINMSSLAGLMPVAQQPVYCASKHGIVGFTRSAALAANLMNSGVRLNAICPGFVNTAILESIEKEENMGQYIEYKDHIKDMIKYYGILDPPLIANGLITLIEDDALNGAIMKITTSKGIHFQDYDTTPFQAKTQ
compound,measurement,setting,value
"CCCCC[C@H](O)/C=C/[C@H]1[C@H](O)CC(=O)[C@@H]1C/C=C\CCCC(=O)O [PGE2, prostaglandin E2]","Increase in bone marrow derived colonies, in words",[1],lesser increase
"CCCC[S+]([O-])c1sc2nc(-c3cccs3)ccc2c1N (stereo not shown) [SW206980, 2-(butylsulfinyl)-6-(thiophen-2-yl)thieno[2,3-b]pyridin-3-amine]",PGE2 levels achieved,A549 cells [2],2500 pg/mL
same,"Induction of 15-PGDH-luciferase reporter, in words",[3],highly active compound in reporter induction; also recorded: activity comparable to SW033291
same,V9M reporter activity ([…]),[4],92.71%
same,V9M reporter activity ([…]),[4]; 100 = doubling,99.37%
COc1ccc(OC)c(N(CC(=O)Nc2cccnc2)S(=O)(=O)c2ccccc2)c1 [SW054384],Direct binding to recombinant 15-PGDH,[5]; melting temperature shift,cannot be demonstrated to bind 15-PGDH
same,"Effect on PGE2 levels in medium, in words",A549 cells [2],lower level of PGE2 produced; also recorded: show activity in lowering PGE2
same,"Induction of 15-PGDH-luciferase reporter, in words",[3],increase luciferase activity
same,15-PGDH mRNA levels,[6],do not in general alter 15-PGDH mRNA levels
same,IC50 fold higher than that of SW033291,[7]; FIG. 12,"10,000 fold"
same,inhibition at […],[7]; [10],20.2%
same,inhibition at […],[7]; [11],58.2%
COc1ccc(OC)c(N(CC(=O)N2CCOCC2)S(=O)(=O)c2ccccc2)c1 [SW125991],"Effect on PGE2 levels in medium, in words",A549 cells [2],show activity in lowering PGE2
same,"Metabolic stability, in words",[8],marked improvement in metabolic stability
same,"Induction of 15-PGDH-luciferase reporter, in words",[3],retains activity in induction of the 15-PGDH-luciferase reporter assay; also recorded: active in inducing the 15-PGDH-luciferase reporter
same,"Inhibition of recombinant 15-PGDH, in words",[7],less inhibition of 15-PGDH at high compound concentration; also recorded: lesser inhibitory activity at high concentration
same,inhibition at […],[7]; [10],11.6%
same,inhibition at […],[7]; [11],31.6%
same,"Toxicity, CellTiter-Glo",A549 cells [9],no toxicity
COc1ccc(OC)c(N(CC(=O)Nc2cccnc2)S(=O)(=O)c2ccc(F)cc2)c1 [SW203736],"Effect on PGE2 levels in medium, in words",A549 cells [2],show activity in lowering PGE2
same,"Induction of 15-PGDH-luciferase reporter, in words",[3],active in inducing 15-PGDH-luciferase reporter activity; also recorded: active in inducing the 15-PGDH-luciferase reporter
same,"Inhibition of recombinant 15-PGDH, in words",[7],lesser inhibitory activity at high concentration
same,inhibition at […],[7]; [10],1.7%
same,inhibition at […],[7]; [11],24.9%
COc1ccc(OC)c(N(CC(=O)Nc2csnc2C)S(=O)(=O)c2ccccc2)c1 [SW203703],"Effect on PGE2 levels in medium, in words",A549 cells [2],show activity in lowering PGE2
same,"Induction of 15-PGDH-luciferase reporter, in words",[3],active in inducing the 15-PGDH-luciferase reporter
same,inhibition at […],[7]; [10],26.5%
same,inhibition at […],[7]; [11],58.9%
O=C(c1ccc2nc(-c3ccccc3)c(-c3ccccc3)nc2c1)N1CCCCC1 [SW145753],"Effect on PGE2 levels in medium, in words",A549 cells [2],clear inhibition of 15-PGDH activity
same,"Induction of 15-PGDH-luciferase reporter, in words",[3],increase luciferase activity
same,15-PGDH mRNA levels,[6],do not in general alter 15-PGDH mRNA levels
"CCCCC(C)(C)[C@H](O)/C=C/[C@H]1[C@H](O)CC(=O)[C@@H]1C/C=C\CCCC(=O)O [dmPGE2, 16,16-dimethyl PGE2]","Increase in bone marrow derived colonies, in words",[1],slightly greater increase
"CCCC[S+]([O-])c1sc2nc(-c3nccs3)ccc2c1N (stereo not shown) [SW206992, 2-(butylsulfinyl)-6-(thiazol-2-yl)thieno[2,3-b]pyridin-3-amine]",Melting temperature,"[5]; 15-PGDH 10 uM, compound 20 uM, NAD(+) 100 uM, control 49",59 degrees
same,PGE2 levels achieved,A549 cells [2],2100 pg/mL
same,Concentration for Full Cell Line Reporter Induction,"[3]; maximal induction of reporter, printed in uM",>1 µM
same,Time to inhibition (10 nM),[7]; time needed to inhibit generation of NADH after drug is added,~2 min
same,V9M reporter activity ([…]),[4],121.75%
same,V9M reporter activity ([…]),[4]; 100 = doubling,86.44%
same,"Toxicity, CellTiter-Glo",A549 cells [9],No effect on CellTitre-Glo levels
same,Toxicity,A549 cells [9]; concentration needed to decrease cell numbers in a cell culture assay,>7.5 µM

# Reference: patent US10301320B2, “Compositions and methods of modulating 15-PGDH activity” (CASE WESTERN RESERVE UNIVERSITY, priority 2012, dated 2019)
